Series [1] addresses T1, Class 1 phosphodiesterase PDEB1 (Trypanosoma brucei, UniProt Q8WQX9).
T1 sequence (Q8WQX9 whole entry): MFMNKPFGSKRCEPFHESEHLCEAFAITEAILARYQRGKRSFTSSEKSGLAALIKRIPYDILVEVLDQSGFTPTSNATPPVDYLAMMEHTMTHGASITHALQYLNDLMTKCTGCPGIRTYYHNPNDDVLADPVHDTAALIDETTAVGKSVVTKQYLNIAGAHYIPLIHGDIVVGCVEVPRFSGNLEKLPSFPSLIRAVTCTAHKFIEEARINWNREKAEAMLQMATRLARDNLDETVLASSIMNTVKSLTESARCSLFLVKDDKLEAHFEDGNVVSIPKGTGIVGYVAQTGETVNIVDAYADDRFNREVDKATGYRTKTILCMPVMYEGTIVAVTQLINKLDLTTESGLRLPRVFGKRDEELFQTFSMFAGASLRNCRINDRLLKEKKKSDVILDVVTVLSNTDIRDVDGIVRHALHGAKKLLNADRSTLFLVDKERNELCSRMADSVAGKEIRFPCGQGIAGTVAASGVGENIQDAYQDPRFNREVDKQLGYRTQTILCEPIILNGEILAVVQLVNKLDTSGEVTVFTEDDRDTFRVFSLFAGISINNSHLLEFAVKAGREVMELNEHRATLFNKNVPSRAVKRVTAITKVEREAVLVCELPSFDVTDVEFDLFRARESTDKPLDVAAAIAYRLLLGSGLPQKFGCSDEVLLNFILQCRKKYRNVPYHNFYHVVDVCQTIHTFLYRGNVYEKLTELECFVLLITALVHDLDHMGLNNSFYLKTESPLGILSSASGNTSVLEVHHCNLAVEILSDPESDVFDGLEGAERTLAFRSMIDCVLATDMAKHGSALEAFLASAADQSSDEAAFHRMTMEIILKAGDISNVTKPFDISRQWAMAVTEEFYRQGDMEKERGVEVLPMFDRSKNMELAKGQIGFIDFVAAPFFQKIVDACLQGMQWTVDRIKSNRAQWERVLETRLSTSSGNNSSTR
As to the kind of experiment: Inhibition of Trypanosoma brucei PDEB1 catalytic domain using cAMP as substrate incubated for 20 mins by PDELight HTS cAMP phosphodiesterase Kit based luminometry.

Series [2] deals with 3',5'-cyclic-AMP phosphodiesterase 4B (Homo sapiens, UniProt Q07343). As to the kind of experiment: Inhibition of human PDE4B catalytic domain using cAMP as substrate incubated for 20 mins by PDELight HTS cAMP phosphodiesterase Kit based luminometry.
3',5'-cyclic-AMP phosphodiesterase 4B, sequence (Q07343 whole entry, the tested form may be a part): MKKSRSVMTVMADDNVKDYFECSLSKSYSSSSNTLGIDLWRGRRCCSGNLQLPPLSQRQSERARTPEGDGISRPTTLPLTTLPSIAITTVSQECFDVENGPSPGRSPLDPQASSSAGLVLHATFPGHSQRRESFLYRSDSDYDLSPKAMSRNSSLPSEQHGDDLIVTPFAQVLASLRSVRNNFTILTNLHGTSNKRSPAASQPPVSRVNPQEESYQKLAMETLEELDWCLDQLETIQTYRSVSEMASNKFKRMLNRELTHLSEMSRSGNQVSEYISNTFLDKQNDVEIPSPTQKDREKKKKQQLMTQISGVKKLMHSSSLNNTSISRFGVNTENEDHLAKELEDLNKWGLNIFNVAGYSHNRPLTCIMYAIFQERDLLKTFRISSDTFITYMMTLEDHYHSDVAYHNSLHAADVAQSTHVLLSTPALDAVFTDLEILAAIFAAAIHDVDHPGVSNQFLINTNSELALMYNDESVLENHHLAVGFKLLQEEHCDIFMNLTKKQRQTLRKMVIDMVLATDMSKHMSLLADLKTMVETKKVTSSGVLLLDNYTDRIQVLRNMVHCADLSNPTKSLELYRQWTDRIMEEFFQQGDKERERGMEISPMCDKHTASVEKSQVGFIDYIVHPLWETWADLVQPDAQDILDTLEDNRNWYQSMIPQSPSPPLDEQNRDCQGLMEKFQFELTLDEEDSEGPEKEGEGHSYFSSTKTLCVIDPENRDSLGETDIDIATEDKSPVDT
Series [3] addresses T1, Class 1 phosphodiesterase PDEB1. As to the kind of experiment: Binding affinity to Trypanosoma brucei PDEB1 assessed as dissociation constant treated for 60 secs measured for 300 secs by SPR assay. A general note: In SPR one partner is held on a chip, and binding of the other changes the refractive index at the surface.
For series [4], the target named is T2, 3',5'-cyclic-AMP phosphodiesterase 4D (Homo sapiens, UniProt Q08499). As to the kind of experiment: Binding affinity to human PDE4D assessed as dissociation constant treated for 60 secs measured for 300 secs by SPR assay.
T2 sequence (Q08499 whole entry): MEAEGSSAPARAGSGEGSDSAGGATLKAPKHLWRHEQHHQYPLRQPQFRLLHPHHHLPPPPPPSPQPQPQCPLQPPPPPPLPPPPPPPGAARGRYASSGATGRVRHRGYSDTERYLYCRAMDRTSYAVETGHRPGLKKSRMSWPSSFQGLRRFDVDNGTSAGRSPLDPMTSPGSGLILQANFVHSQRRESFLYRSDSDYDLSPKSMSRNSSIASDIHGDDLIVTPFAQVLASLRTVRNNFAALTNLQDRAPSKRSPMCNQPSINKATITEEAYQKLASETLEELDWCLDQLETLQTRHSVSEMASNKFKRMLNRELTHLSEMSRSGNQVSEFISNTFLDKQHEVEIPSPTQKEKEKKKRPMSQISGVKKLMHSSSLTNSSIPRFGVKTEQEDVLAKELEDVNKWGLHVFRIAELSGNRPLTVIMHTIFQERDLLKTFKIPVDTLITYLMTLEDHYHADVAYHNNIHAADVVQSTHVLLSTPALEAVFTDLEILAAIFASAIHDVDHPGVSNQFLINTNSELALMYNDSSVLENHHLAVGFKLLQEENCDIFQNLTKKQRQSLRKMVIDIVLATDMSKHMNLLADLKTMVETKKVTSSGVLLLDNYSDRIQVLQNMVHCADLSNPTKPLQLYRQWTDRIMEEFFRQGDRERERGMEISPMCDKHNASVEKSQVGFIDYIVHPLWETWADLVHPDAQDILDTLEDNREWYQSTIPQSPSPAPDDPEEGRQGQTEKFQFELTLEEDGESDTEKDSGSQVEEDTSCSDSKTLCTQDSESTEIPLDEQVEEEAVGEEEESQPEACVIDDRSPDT
The subject of series [5] is Trypanosoma brucei. As to the kind of experiment: Antitrypanosomal activity against Trypanosoma brucei Squib 427 trypomastigotes assessed as reduction in parasite growth incubated for 72 hrs by resazurin dye-based fluorimetric analysis. The conditions noted are these: Squib 427, 72 h. It counts as functional, organism-based. (Alamar Blue is a resazurin reagent that responds to reducing activity.)

A short description of series [6]: Cytotoxicity against human MRC5 cells assessed as reduction in cell viability incubated for 72 hrs by resazurin dye-based fluorimetric analysis.
Series [7] concerns Trypanosoma brucei. Briefly: Antitrypanosomal activity against bloodstream form of Trypanosoma brucei 221 cells assessed as blockade in cytokinesis with multiple flagella and nuclei formation at 1 uM incubated for 24 to 48 hrs by DAPI/PFR-staining based fluorescence microscopy. It counts as functional, organism-based.
Series [8] has as its system Trypanosoma brucei. As to the kind of experiment: Antitrypanosomal activity against procyclic form of Trypanosoma brucei 2913 assessed as increase in intracellular cAMP level at 1 to 10 uM by cAMP sensor based FRET assay. It counts as functional, organism-based.
Series [9] has as its target T1, Class 1 phosphodiesterase PDEB1. As to the kind of experiment: Binding affinity to Trypanosoma brucei PDEB1 assessed as dissociation constant treated for 320 secs measured for 900 secs by SPR assay.
The target in series [10] is T2, 3',5'-cyclic-AMP phosphodiesterase 4D. As to the kind of experiment: Binding affinity to human PDE4D assessed as dissociation constant treated for 320 secs measured for 900 secs by SPR assay.
Series [11] is described as follows: Selectivity index, ratio of pKi for Trypanosoma brucei PDEB1 to pKi for human PDE4B using cAMP as substrate incubated for 20 mins by PDELight HTS cAMP phosphodiesterase Kit based luminometry.

Calls of active or inactive are those of the source. The calls are words filed in the database; no cut-off is given here.

As a reminder, the Ki is the equilibrium dissociation constant of an inhibitor or competing ligand from its target. The low end stands for tighter binding, the high end for weaker binding. A word on the Kd: it is a measure of binding affinity in units of concentration. The term IC50 denotes the concentration at which inhibition is half-maximal. What is called CC50 is the concentration at which the toxic effect on the cells reaches its halfway point. `COc1ccc(C2=NN(C(C)C)C(=O)[C@@H]3CC=CC[C@H]23)cc1C#CC(N)=O` (relative stereo): the results for the Ki in [1] and in [2] were 501 nM and 316 nM, respectively. For the same compound, the Kd in series [3] is 794 nM; in [4], 251 nM. In addition, in the series on Trypanosoma brucei [5], the IC50 was 6310 nM. Moreover, the CC50 at 72 h in [6] was 31600 nM.
In the case of `COc1ccc(C2=NN(C(C)C)C(=O)[C@@H]3CC=CC[C@H]23)cc1C#CC(=O)Nc1cnn(C)n1` (relative stereo), the Ki in [1] was 2510 nM; in series [2], 501 nM. Also, the IC50 in the series on Trypanosoma brucei [5] was more than 63100 nM. Also, the CC50 at 72 h in series [6] was 10000 nM.
Regarding `CCCCNC(=O)C#Cc1cc(C2=NN(C(C)C)C(=O)[C@@H]3CC=CC[C@H]23)ccc1OC` (relative stereo), the Ki was 316 nM in [1] and 501 nM in series [2]. The IC50 with Trypanosoma brucei [5] is 7940 nM. In addition, the CC50 at 72 h in series [6] was more than 63100 nM.
For `COc1ccc(C2=NN(C(C)C)C(=O)[C@@H]3CC=CC[C@H]23)cc1C#CC(=O)N1CCOCC1` (relative stereo) the same measures were 1000 nM, 794 nM, 10000 nM and 31600 nM.
With `COc1ccc(C2=NN(C3CCCCCC3)C(=O)[C@@H]3CC=CC[C@H]23)cc1C#CC(N)=O`, the results for the Ki in [1] and in series [2] were 631 nM and 316 nM, respectively.
With `COc1ccc(C2=NN(C(C)C)C(=O)[C@@H]3CC=CC[C@H]23)cc1C#CC(=O)NCCc1nccs1` (relative stereo), the Ki was 251 nM in series [1] and 398 nM in series [2]. Moreover, the IC50 in the series on Trypanosoma brucei [5] was 5010 nM. Besides, the CC50 at 72 h in [6] is 10000 nM.
With `COc1ccc(C2=NN(C(C)C)C(=O)[C@@H]3CC=CC[C@H]23)cc1C#CC(=O)NCCCn1ccnc1` (relative stereo), the values for the Ki in [1] and in series [2] were 398 nM and 631 nM, respectively. Besides, the IC50 in the series on Trypanosoma brucei [5] was 7940 nM. Moreover, in [6], the CC50 at 72 h is 251 nM.
Regarding `COc1ccc(C2=NN(C(C)C)C(=O)[C@@H]3CC=CC[C@H]23)cc1C#CC(=O)NCc1ccco1` (relative stereo), the Ki was 126 nM in [1] and 398 nM in [2]. Further, the IC50 in the series on Trypanosoma brucei [5] was 2510 nM. In addition, the CC50 at 72 h in [6] was more than 63100 nM.
For the compound `COc1ccc(C2=NN(C(C)C)C(=O)[C@@H]3CC=CC[C@H]23)cc1C#CC(=O)NCC1CC1` (relative stereo), the Ki in series [1] is 398 nM; in [2] it was 316 nM. In the series with Trypanosoma brucei [5], the IC50 was 7940 nM. Further, in series [6], the CC50 at 72 h was more than 63100 nM.
For `COc1ccc(C2=NN(C(C)C)C(=O)[C@@H]3CC=CC[C@H]23)cc1C#CC(=O)N1CC(C#N)C1` (relative stereo) the same measures were 631 nM, 398 nM, 7940 nM and 7940 nM.
For `COc1ccc(C2=NN(C(C)C)C(=O)[C@@H]3CC=CC[C@H]23)cc1C#CC(=O)NCC1CCC1` (relative stereo) the same measures were 316 nM, 794 nM, 6310 nM and more than 63100 nM.
On to `COc1cccc(NC(=O)C#Cc2cc(C3=NN(C(C)C)C(=O)[C@@H]4CC=CC[C@H]34)ccc2OC)c1` (relative stereo), for which the Ki in series [1] was 200 nM; in series [2], 1000 nM. Also, in the series on Trypanosoma brucei [5], the IC50 is 1580 nM. Moreover, the CC50 at 72 h in series [6] is more than 63100 nM.
Regarding `COc1ccc(C2=NN(C(C)C)C(=O)[C@@H]3CC=CC[C@H]23)cc1C#CC(=O)NCc1ccncc1` (relative stereo), the Ki in series [1] was 100 nM; in [2] it was 631 nM. The result in the series on Trypanosoma brucei [7] and in the series with Trypanosoma brucei [8] was Active. In addition, the IC50 with Trypanosoma brucei [5] is 1000 nM. The CC50 at 72 h in [6] was 31600 nM.
Turning to `COc1ccc(C2=NN(C(C)C)C(=O)[C@@H]3CC=CC[C@H]23)cc1C#CC(=O)NCCc1ccccc1F` (relative stereo), the Ki in [1] is 316 nM; in [2] it was 794 nM. In the series on Trypanosoma brucei [5], the IC50 was 2000 nM. For the same compound, the CC50 at 72 h in series [6] is more than 63100 nM.
With `COc1ccc(C2=NN(C(C)C)C(=O)[C@@H]3CC=CC[C@H]23)cc1C#CC(=O)NCCc1cccs1` (relative stereo), the Ki in series [1] was 398 nM; in series [2], 794 nM. The IC50 in the series with Trypanosoma brucei [5] is 2510 nM. Also, in series [6], the CC50 at 72 h is more than 63100 nM.
Turning to `COc1ccc(C2=NN(C(C)C)C(=O)[C@@H]3CC=CC[C@H]23)cc1C#CC(=O)NCc1cnn(C)c1`, the Ki was 126 nM in [1] and 631 nM in series [2]. Besides, in the series on Trypanosoma brucei [5], the IC50 was 1580 nM. Besides, in series [6], the CC50 at 72 h was 20000 nM.
As for `COc1ccc(C2=NN(C(C)C)C(=O)[C@@H]3CC=CC[C@H]23)cc1C#CC(=O)NCCC#N` (relative stereo), the results for the Ki in series [1] and in series [2] were 1000 nM and 794 nM, respectively. The IC50 with Trypanosoma brucei [5] was 25100 nM. Also, the CC50 at 72 h in [6] is 31600 nM.
As for `COc1ccc(C2=NN(C(C)C)C(=O)[C@@H]3CC=CC[C@H]23)cc1C#CC(=O)NCc1ccccc1` (relative stereo), the Ki in [1] is 158 nM; in series [2], 794 nM. Further, the result in the series with Trypanosoma brucei [7] and in the series on Trypanosoma brucei [8] was Active. For the same compound, the Kd in series [9] and in [10] was 79.4 nM in each case. In addition, in the series on Trypanosoma brucei [5], the IC50 is 631 nM. Further, the CC50 at 72 h in [6] was more than 63100 nM.
Take `COc1ccc(C2=NN(C3CCCCCC3)C(=O)[C@@H]3CC=CC[C@H]23)cc1-c1ccc(C(=O)NCC(N)=O)cc1`: the Ratio pKi in series [11] amounted to 1.
Regarding `COc1ccc(C2=NN(C(C)C)C(=O)[C@@H]3CC=CC[C@H]23)cc1C#CC(=O)NCc1cccnc1` (relative stereo), the Ki in [1] is 100 nM; in [2], 501 nM. Further, the IC50 in the series with Trypanosoma brucei [5] was 1260 nM. Also, the CC50 at 72 h in [6] is 3980 nM.
As for `COc1ccc(C2=NN(C(C)C)C(=O)[C@@H]3CC=CC[C@H]23)cc1C#CC(=O)NCc1csc(C)n1` (relative stereo), the Ki in series [1] was 316 nM; in series [2] it was 1000 nM. For the same compound, the IC50 in the series with Trypanosoma brucei [5] is 2000 nM. In addition, in series [6], the CC50 at 72 h was 12600 nM.
With `COc1ccc(C2=NN(C(C)C)C(=O)[C@@H]3CC=CC[C@H]23)cc1C#CC(=O)NCc1ccc(C)o1` (relative stereo), the Ki in [1] and in series [2] was 200 nM in each case. In addition, the IC50 in the series on Trypanosoma brucei [5] was 3160 nM. Moreover, the CC50 at 72 h in series [6] was more than 63100 nM.
In the case of `COc1ccc(C2=NN(C(C)C)C(=O)[C@@H]3CC=CC[C@H]23)cc1C#CC(=O)NCc1cccs1` (relative stereo), the Ki in series [1] is 126 nM; in series [2], 501 nM. The IC50 in the series with Trypanosoma brucei [5] is 1000 nM. Also, the CC50 at 72 h in series [6] was 63100 nM.
On to `COc1ccc(C2=NN(C(C)C)C(=O)[C@@H]3CC=CC[C@H]23)cc1C#CC(=O)NCc1sc(C)nc1C` (relative stereo), for which the figures for the Ki in [1] and in series [2] were 200 nM and 251 nM, respectively. Further, the IC50 in the series on Trypanosoma brucei [5] was 2000 nM. In addition, the CC50 at 72 h in series [6] is 7940 nM.
As for `COc1ccc(C2=NN(C(C)C)C(=O)[C@@H]3CC=CC[C@H]23)cc1C#CC(=O)Nc1ccn(CCCC#N)n1` (relative stereo), the Ki in series [1] is 794 nM; in series [2], 1260 nM. For the same compound, in the series with Trypanosoma brucei [5], the IC50 is 2000 nM. In addition, the CC50 at 72 h in series [6] was 7940 nM.
Taken in the same sequence, the figures for `COc1ccc(C2=NN(C(C)C)C(=O)[C@@H]3CC=CC[C@H]23)cc1C#CC(=O)NCC1CCCO1` (relative stereo) were 398 nM, 1260 nM, 7940 nM and 31600 nM.

For the origin of these results see ChEMBL document CHEMBL4346760, “Alkynamide phthalazinones as a new class of TbrPDEB1 inhibitors (Part 2)” (Bioorg Med Chem, 2019).
